Legend:
[1] = test system: KRas-mediated phosphorylation of ERK in AsPC-1 cells; assay: Inhibition of KRas-mediated phosphorylation of ERK (Cisbio HTRF pERK), AsPC-1 cells; format: cell-based; settings: Homo sapiens; for IC50: ASPC1, AsPC-1 cells, HTRF pERK; for inhibition at 0.1 µM: ASPC1, 3 h, single point, 100 nM compound, 3 hrs, AsPC-1 cells
Outline: (§1)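 6,000 cells/well; cpd 10 uM top, 3-fold x10, 0.8% DMSO final; 3 hr incubation; Min ctrl Trametinib 0.2 uM; lysis 40 min 4° C shaking; d2 + Cryptate Ab mix, 2 hr RT; HTRF read.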

[2] = test system: KRas-mediated phosphorylation of ERK in H727 cells; assay: Inhibition of KRas-mediated phosphorylation of ERK (Cisbio HTRF pERK), H727 cells; format: cell-based; settings: Homo sapiens; for IC50: NCI-H727, H727 cells, HTRF pERK; for inhibition at 0.1 µM: NCI-H727, 3 h, single point, 100 nM compound, 3 hrs, H727 cells
Outline: as §1

[3] = test system: KRas-mediated phosphorylation of ERK in A549 cells; assay: Inhibition of KRas-mediated phosphorylation of ERK (Cisbio HTRF pERK), A549 cells; format: cell-based; settings: Homo sapiens; for IC50: HTRF pERK; for inhibition at 0.1 µM: A549, 3 h, single point, 100 nM compound, 3 hrs
Procedure: (§2) Inhibition of KRas Phosphorylation of ERK (HTRF) by Exemplary Compounds of Formula (I) Cisbio HTRF Advanced PERK Assay Catalog #64[…] […] Add 10 mL of media to stop trypsinizing. Pipette the cells into a conical bottom 50 mL centrifuge tube and centrifuge 5 min×1000 rpm. […] Re-suspend the cell pellet in media, take a cell count, and then adjust the cell density using fresh media. […] Seed 6,000 cells into cell culture plate with 50 μL media. […] Use Tecan to complete the compound addition. Compounds start from 10 uM top, 3-fold dilution, and 10 doses. The final DMSO concentration is 0.8%. Dispensed 0.2 uM Trametinib as Min control. […] Incubate cell plate for 3 hrs in the incubator. […] Dilute 1 volume of 4× lysis buffer with 3 volumes of deionized water. […] Keep lysis buffer on the ice. […] At the end of the compound treatment, flick-off the media. […] Add 35 μL of lysis buffer per well using a Multidrop Combi. Then place on a plate agitator shaking at 300 rpm at 4° C. for 40 mins. […] Make up the HTRF antibody buffer. For each assay plate, mix 50 μL of d2-conjugate antibody with 950 μL of detection buffer. Similarly, mix 50 μL of Cryptate antibody with 950 μL of detection buffer. Then mix the two diluted antibodies together. […] Dispense 3.4 μL the antibody buffer to wells of an empty assay plate. Seal the plate and centrifuge plate 30 sec×1000 rpm. […] At the end of the 4° C. lysis, centrifuge the lysate plates 3 mins×1500 rpm. […] Use the Bravo to transfer 13.6 μL of lysate from cell culture plate to assay plate. Then incubate assay plate for 2 hrs at room temperature. 8. At the end of incubation, read plate on the Envision after centrifuging plate 30 sec×1000 rpm.

[4] = test system: KRas-mediated phosphorylation of ERK in H460 cells; assay: Inhibition of KRas-mediated phosphorylation of ERK (Cisbio HTRF pERK), H460 cells; format: cell-based; settings: Homo sapiens; for IC50: NCI-H460, HTRF pERK; for inhibition at 0.1 µM: NCI-H460, 3 h, single point, 100 nM compound, 3 hrs
Procedure: as §2

[5] = test system: KRas-mediated phosphorylation of ERK in HCT116 cells; assay: Inhibition of KRas-mediated phosphorylation of ERK (Cisbio HTRF pERK), HCT116 cells; format: cell-based; settings: Homo sapiens; for IC50: HCT-116, HTRF pERK; for inhibition at 0.1 µM: HCT-116, 3 h, single point, 100 nM compound, 3 hrs
Procedure: as §2

[6] = test system: KRas-mediated phosphorylation of ERK in H358 cells; assay: Inhibition of KRas-mediated phosphorylation of ERK (Cisbio HTRF pERK), H358 cells; format: cell-based; settings: Homo sapiens; for IC50: NCI-H358, HTRF pERK; for inhibition at 0.1 µM: NCI-H358, 3 h, single point, 100 nM compound, 3 hrs
Procedure: as §2

[7] = biological target: T1, KRas^G12D (Homo sapiens, UniProt P01116, G12D); assay: KRas binding assay (TR-FRET tracer displacement), KRas G12D
T1 construct: Biotinylated KRas (corresponding to amino acids 1-169, produced at Accelegan Inc.); biotin (biotinylated); purchased Accelegan Inc

[8] = biological target: T2, KRas^G12R (Homo sapiens, UniProt P01116, G12R); assay: KRas binding assay (TR-FRET tracer displacement), KRas G12R
T2 construct: Biotinylated KRas (corresponding to amino acids 1-169, produced at Accelegan Inc.); biotin (biotinylated); purchased Accelegan Inc

[9] = biological target: T3, KRas^G12V (Homo sapiens, UniProt P01116, G12V); assay: KRas binding assay (TR-FRET tracer displacement), KRas G12V
T3 construct: Biotinylated KRas (corresponding to amino acids 1-169, produced at Accelegan Inc.); biotin (biotinylated); purchased Accelegan Inc
T3 sequence (P01116 1-169 isoform P01116-2 G12V): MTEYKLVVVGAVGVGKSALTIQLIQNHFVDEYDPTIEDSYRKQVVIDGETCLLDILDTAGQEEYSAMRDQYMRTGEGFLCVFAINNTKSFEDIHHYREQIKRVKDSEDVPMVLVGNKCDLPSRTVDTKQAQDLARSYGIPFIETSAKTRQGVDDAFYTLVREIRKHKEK

T2 sequence (P01116 1-169 isoform P01116-2 G12R): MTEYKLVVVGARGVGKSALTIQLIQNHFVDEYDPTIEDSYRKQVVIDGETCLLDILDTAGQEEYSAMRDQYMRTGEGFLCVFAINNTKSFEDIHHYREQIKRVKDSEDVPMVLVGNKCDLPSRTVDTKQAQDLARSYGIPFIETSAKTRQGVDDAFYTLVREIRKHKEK
T1 sequence (P01116 1-169 isoform P01116-2 G12D): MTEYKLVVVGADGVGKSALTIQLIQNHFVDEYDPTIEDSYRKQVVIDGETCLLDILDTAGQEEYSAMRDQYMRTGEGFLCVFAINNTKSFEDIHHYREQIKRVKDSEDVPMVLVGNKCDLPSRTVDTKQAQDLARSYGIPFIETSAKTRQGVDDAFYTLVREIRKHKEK

| Structure (SMILES) | IC50 [1] | IC50 [2] | IC50 [3] | IC50 [4] | IC50 [5] | IC50 [6] | inhibition at 0.1 µM [3] | inhibition at 0.1 µM [4] | inhibition at 0.1 µM [5] | inhibition at 0.1 µM [6] | IC50 [7] | IC50 [8] | IC50 [9] | inhibition at 0.1 µM [1] | inhibition at 0.1 µM [2] |
| --- | --- | --- | --- | --- | --- | --- | --- | --- | --- | --- | --- | --- | --- | --- | --- |
| CCc1c(F)ccc2cc(O)cc(-c3ncc4c(N5CC6CCC(CCC(=O)N(C)C)(C6)C5)nc(OC[C@@]56CCCN5C[C@H](F)C6)nc4c3F)c12 (stereo partly drawn) [Example 913, 3-(3-(7-(8-ethyl-7-fluoro-3-hydroxynaphthalen-1-yl)-8-fluoro-2-(((2R,7aS)-2-fluorotetrahydro-1H-pyrrolizin-7a(5H)-yl)methoxy)pyrido[4,3-d]pyrimidin-4-yl)-3-azabicyclo[3.2.1]octan-1-yl)-N,N-dimethylpropanamide] | 580 nM | 571 nM | 246 nM | 112 nM | 211 nM | 146 nM | – | – | – | – | – | – | – | – | – |
| CCc1c(F)ccc2cc(O)cc(-c3ncc4c(N5CC6CNCC6C5CO)nc(OC[C@@]56CCCN5C[C@H](F)C6)nc4c3F)c12 (stereo partly drawn) [Example 890, 5-ethyl-6-fluoro-4-(8-fluoro-2-(((2R,7aS)-2-fluorotetrahydro-1H-pyrrolizin-7a(5H)-yl)methoxy)-4-(1-(hydroxymethyl)hexahydropyrrolo[3,4-c]pyrrol-2 (1H)-yl)pyrido[4,3-d]pyrimidin-7-yl)naphthalen-2-ol] | > 10000 nM | > 10000 nM | > 10000 nM | > 10000 nM | > 10000 nM | > 10000 nM | – | – | – | – | – | – | – | – | – |
| CCc1c(F)ccc2cc(O)cc(-c3ncc4c(N5CCOCC6(CCO6)C5)nc(OC[C@@]56CCCN5C[C@H](F)C6)nc4c3F)c12 (stereo partly drawn) [Example 573, 5-ethyl-6-fluoro-4-(8-fluoro-2-(((2R,7aS)-2-fluorotetrahydro-1H-pyrrolizin-7a(5H)-yl)methoxy)-4-(1,6-dioxa-9-azaspiro[3.6]decan-9-yl)pyrido[4,3-d]pyrimidin-7-yl)naphthalen-2-ol] | 12 nM | 15 nM | – | – | – | – | 62% | 92% | 53% | 94% | – | – | – | – | – |
| CCc1c(F)ccc2cc(O)cc(-c3ncc4c(N5CC6CCC(CC(=O)NC)(C6)C5)nc(OC[C@@]56CCCN5C[C@H](F)C6)nc4c3F)c12 (stereo partly drawn) [Example 914, 2-(3-(7-(8-ethyl-7-fluoro-3-hydroxynaphthalen-1-yl)-8-fluoro-2-(((2R,7aS)-2-fluorotetrahydro-1H-pyrrolizin-7a(5H)-yl)methoxy)pyrido[4,3-d]pyrimidin-4-yl)-3-azabicyclo[3.2.1]octan-1-yl)-N-methylacetamide] | 2380 nM | 1040 nM | – | – | – | 461 nM | – | – | – | – | 12 nM | 5 nM | 3 nM | – | – |
| CCc1c(F)ccc2cc(O)cc(-c3ncc4c(N5CCn6cc(C(=O)N(C)C)nc6C5)nc(OC[C@@]56CCCN5C[C@H](F)C6)nc4c3F)c12 [Example 646, 7-(7-(8-ethyl-7-fluoro-3-hydroxynaphthalen-1-yl)-8-fluoro-2-(((2R,7aS)-2-fluorohexahydro-1H-pyrrolizin-7a-yl)methoxy)pyrido[4,3-d]pyrimidin-4-yl)-N,N-dimethyl-5,6,7,8-tetrahydroimidazo[1,2-a]pyrazine-2-carboxamide] | 8480 nM | > 10000 nM | – | – | – | – | -24% | -9% | -9% | 2% | – | – | – | -12% | -6% |
| C[C@@]1(O)CCCN(c2nc(OCC34CCCN3CCC4)nc3c(F)c(-c4ccc(F)c5sc(N)c(C#N)c45)ncc23)C1 [Example 916, (R)-2-amino-7-fluoro-4-(8-fluoro-4-(3-hydroxy-3-methylpiperidin-1-yl)-2-((tetrahydro-1H-pyrrolizin-7a(5H)-yl)methoxy)pyrido[4,3-d]pyrimidin-7-yl)benzo[b]thiophene-3-carbonitrile] | > 10000 nM | > 10000 nM | – | – | – | 8970 nM | – | – | – | – | 78 nM | 132 nM | 120 nM | – | – |
| CCNC(=O)c1cc2n(n1)CCCCN(c1nc(OC[C@@]34CCCN3C[C@H](F)C4)nc3c(F)c(-c4cc(O)cc5ccc(F)c(CC)c45)ncc13)C2 [Example 673, N-ethyl-5-(7-(8-ethyl-7-fluoro-3-hydroxynaphthalen-1-yl)-8-fluoro-2-(((2R,7aS)-2-fluorotetrahydro-1H-pyrrolizin-7a(5H)-yl)methoxy)pyrido[4,3-d]pyrimidin-4-yl)-4,5,6,7,8,9-hexahydropyrazolo[1,5-a][1,4]diazocine-2-carboxamide] | 115 nM | 21 nM | – | – | – | – | 43% | 8% | 16% | 88% | – | – | – | 8% | 53% |
| C=C1CN2CCC[C@@]2(COc2nc(N3C[C@@H]4C[C@H](C3)[C@H](O)C4)c3cnc(-c4cc(O)cc5ccc(F)c(CC)c45)c(F)c3n2)C1 [Example 896, (1R,5R,6R)-3-(7-(8-ethyl-7-fluoro-3-hydroxynaphthalen-1-yl)-8-fluoro-2-(((S)-2-methylenetetrahydro-1H-pyrrolizin-7a(5H)-yl)methoxy)pyrido[4,3-d]pyrimidin-4-yl)-3-azabicyclo[3.2.1]octan-6-ol] | 6 nM | 2 nM | 1 nM | – | – | 1 nM | – | – | – | – | – | – | – | – | – |
| CCc1c(F)ccc2cc(O)cc(-c3ncc4c(N5CCCn6nc(P(C)(C)=O)cc6C5)nc(OC[C@@]56CCCN5C[C@H](F)C6)nc4c3F)c12 [Example 660, (5-(7-(8-ethyl-7-fluoro-3-hydroxynaphthalen-1-yl)-8-fluoro-2-(((2R,7aS)-2-fluorohexahydro-1H-pyrrolizin-7a-yl)methoxy)pyrido[4,3-d]pyrimidin-4-yl)-5,6,7,8-tetrahydro-4H-pyrazolo[1,5-a][1,4]diazepin-2-yl)dimethylphosphine oxide] | 8030 nM | > 10000 nM | – | – | – | – | -41% | – | – | -20% | 2 nM | 2 nM | 7 nM | – | – |
| CCc1c(F)ccc2cc3[nH]ncc3c(-c3ncc4c(N5CCCC6(CNS(=O)(=O)N6)C5)nc(OC[C@@]56CCCN5C[C@H](F)C6)nc4c3F)c12 (some centres unmarked) [Example 872] | 328 nM | 1210 nM | 581 nM | 318 nM | 636 nM | 197 nM | – | – | – | – | – | – | – | – | – |
| CCc1c(F)ccc2cc(O)cc(-c3ncc4c(N5CCCC6(CCC6)C5)nc(OC[C@@]56CCCN5C[C@H](F)C6)nc4c3F)c12 [Example 549, 5-ethyl-6-fluoro-4-(8-fluoro-2-(((2R,7aS)-2-fluorotetrahydro-1H-pyrrolizin-7a(5H)-yl)methoxy)-4-(6-azaspiro[3.5]nonan-6-yl)pyrido[4,3-d]pyrimidin-7-yl)naphthalen-2-ol] | 328 nM | 208 nM | – | – | – | – | -6% | – | – | 3% | 7 nM | 8 nM | 4 nM | – | – |
| C=C1CN2CCC[C@]2(COc2nc(N3C[C@@H]4C[C@H](C3)[C@H](O)C4)c3cnc(-c4cc(O)cc5ccc(F)c(CC)c45)c(F)c3n2)C1 [Example 897, (1R,5R,6R)-3-(7-(8-ethyl-7-fluoro-3-hydroxynaphthalen-1-yl)-8-fluoro-2-(((R)-2-methylenetetrahydro-1H-pyrrolizin-7a(5H)-yl)methoxy)pyrido[4,3-d]pyrimidin-4-yl)-3-azabicyclo[3.2.1]octan-6-ol] | 32 nM | 12 nM | 5 nM | – | – | 3 nM | – | – | – | – | – | – | – | – | – |

From patent publication US20260015350A1, “AZAQUINAZOLINE PAN-KRAS INHIBITORS” (Mirati Therapeutics, Inc., priority 2022, published 2026)
